# Experimental data published in patent US20100323990A1, “SHIP 1 MODULATOR PRODRUGS” (THE UNIVERSITY OF BRITISH COLUMBIA, priority 2006, published 2010).
# Columns and labels:
# [1] = tested on: CD1 mice sensitized to the hapten DNP; test: Mouse acute cutaneous anaphylaxis model (Assay 5); type: in vivo; conditions: for Assay 5: Mouse acute cutaneous anaphylaxis model, desired activity: topical on ear, DNFB challenge, MPO activity
# [2] = tested on: J774.1a macrophage cells; test: Macrophage TNF-α NO assay (Assay 3), Griess reagent; type: cell-based; conditions: 10 μg/ml test compound, LPS, supernatants after 24 hr; also: key: a ‘+’ indicates a positive result for desired activity; a ‘−’ indicates a negative result for desired activity
# Summary of the method: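 J774.1a macrophages pretreated 40 min with 10 μg/mL compound, then LPS (100 ng/mL for TNF-α); TNF-α by ELISA in supernatants at 2 and 5 h, NO by Griess at 24 h. Mast cells IgE-loaded (anti-DNP), compound 30 min, DNP-HSA challenge; calcium flux by fura-2 spectrofluorometry, signalling by immunoblot.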
# [3] = tested on: luciferase expressing OPM2 cells; test: In vivo Multiple Myeloma (MM) assay (Assay 8), OPM2 xenograft; parameters: species or system mice; conditions: 50 mg/kg every 3 days, subcutaneous oil depot
# Description: Assay 8) In vivo Multiple Myeloma (MM) assay. Mice were inoculated with at two sites each with 3×10^6 luciferase expressing OPM2 cells suspended in 50 μL of growth medium and 50 μL of Matrigel basement membrane matrix (Becton Dickenson; Bedford, Mass.). Tumors were injected subcutaneously in the upper and lower flanks of the mice and allowed to establish for 2 weeks. After 2 weeks, a test compound or control vehicle was administered in a subcutaneous oil depot at a dose of 50 mg/kg every 3 days.
# Tumors were measured using bioluminescence imaging on the Xenogen IVIS 200. Mice received intra-peritoneal injections of 200 μL of D-luciferin at 3.75 mg/mL in sterile PBS. Mice were then anesthetized with isofluorane and imaged 15 minutes post-injection of luciferin. Quantification of tumor size was performed using the Living Image™ software.
# MM Xenograft murine model. Mice were inoculated with at two sites each with 3×10^6 luciferase expresseing OPM2 cells suspended in 50 μL of growth medium and 50 μL of Matrigel basement membrane matrix (Becton Dickenson; Bedford, Mass.). Tumors were injected subcutaneously in the upper and lower flanks of the mice and allowed to establish for 2 weeks. […]
# Tumors were measured using bioluminescence imaging on the Xenogen IVIS 200. […] Quantification of tumor size was performed using the Living Image™ software. […]
# [4] = Initial toxicology studies; type: in vivo; conditions: data not shown
# Source text: A novel paradigm for inhibiting PI3K signaling through activation of the phosphatases that negatively regulate this pathway is provided. SHIP is a particularly good target for immune/hematopoietic disorders because of its restricted expression to hematopoietic cells. Because the relative activity of phosphatases present in a cell will influence the efficacy of kinase inhibitors, as discussed by Knight and Shokat, SHIP agonists may also be used to potentiate the activation of PI3K inhibitors and promote tissue targeting of PI3K inhibitors to the ematopoietic/immune cell compartment.
Compound,"Assay 5: Mouse acute cutaneous anaphylaxis model, desired activity [1]","allergen (DNFB)-induced inflammation of the ear ([1]; topically applied, vs vehicle control-treated ear)","Assay 3: Macrophage NO assay, desired activity [2]","Assay 8: In vivo Multiple Myeloma (MM) assay, desired activity [3]",peripheral blood cell counts and bone marrow progenitor numbers [4],tolerability [4]
Cc1cc(O)cc2c1[C@]1(C)CCC3C(C)(C)CCC[C@]3(C)[C@H]1C2 (some centres unmarked) [Compound 100],+,dramatically inhibited allergen-induced inflammation,+,+,do not significantly affect,well tolerated
Cc1cc(O)c(O)c2c1[C@]1(C)CCC3C(C)(C)CCC[C@]3(C)[C@H]1C2 (some centres unmarked) [AQX-016A],+,,+,+,do not significantly affect,well tolerated
